Reference: EP4653437A2 (Innovo Therapeutics Inc., priority 2023, dated 2024)

Legend:
A549 cells = assay: Measurement of PGE2-increasing activity in A549 cells (IL-1β stimulated, PGE2 quantified in supernatant); assay type: cell-based; conditions: Homo sapiens, 24 h; concentration of 1 µM of each compound; IL-1β treated A549 cells; read-out: Increased PGE2 production in A549 cells
How it was run: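 PGE2 secreted into the supernatant was measured by immunoassay 24 h after treatment. Before treatment, A549 cells were cultured 24 h in 10% FBS F12K, washed, and placed in serum-free medium containing compound (DMSO 0.1% final) plus or minus IL-1β, incubated at 37 °C, 5% CO2.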

human 15-PGDH = target: T1, human 15-PGDH (Homo sapiens, UniProt P15428); assay: Evaluation of 15-PGDH inhibitory activity (fluorescence enzyme assay, NAD+/PGE2); assay type: biochemical; conditions: human 15-PGDH enzyme, fluorescence Vmax
T1 construct: purchased R&D System 5660-DH
T1 sequence (P15428 1-266): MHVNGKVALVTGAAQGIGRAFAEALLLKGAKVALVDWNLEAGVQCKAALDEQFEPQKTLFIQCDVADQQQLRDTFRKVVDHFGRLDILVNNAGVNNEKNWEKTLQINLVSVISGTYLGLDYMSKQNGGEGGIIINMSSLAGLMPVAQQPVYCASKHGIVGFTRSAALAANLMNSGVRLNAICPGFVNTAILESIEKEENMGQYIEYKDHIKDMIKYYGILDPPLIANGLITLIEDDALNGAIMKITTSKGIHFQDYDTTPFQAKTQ
Procedure: 15-PGDH inhibition activity of Example compounds was measured as follows. 6.7 ng of human 15-PGDH (R&D System# 5660-DH) enzyme (10 µL) was added to a black 96 well plate, 60 µL of buffer (50 mM Tris-HCl, pH 7.5, 0.01% Tween 20) was added, and 10 µL of 200 µM β-Nicotinamide adenine dinucleotide sodium salt (Sigma, Cat# N0632-5G) was added. 10 µL of (10x) compound solution in DMSO was added and reacted for 10 minutes at room temperature.

SMILES | IC50 (human 15-PGDH) [nM] | fold induction at 1 µM (A549 cells)
CNc1nn2c(-c3ccc4c(c3)C(=O)NCC4)cccc2c1C(=O)N1CCCCC1 [Example 160] | > 1000 | < 1.5
O=C(Nc1cccnc1)c1cncc(-c2cccc3c(C(=O)N4CCCCC4)cnn23)c1 [Example 53, 5-(3-(piperidine-1-carbonyl)pyrazolo[1,5-a]pyridin-7-yl)-N-(pyridin-3-yl)nicotinamide] | ≤ 100 | > 1.5
O=C(Nc1cccc(-c2cccc3c(C(=O)N4CCCCC4)cnn23)c1)C1CCCCC1 [Example 96, N-(3-(3-(piperidine-1-carbonyl)pyrazolo[1,5-a]pyridin-7-yl)phenyl)cyclohexanecarboxamide] | ≤ 100 | < 1.5
N#CCNC(=O)c1cncc(-c2cccc3c(C(=O)N4CCCCC4)cnn23)c1 [Example 52, N-(cyanomethyl)-5-(3-(piperidine-1-carbonyl)pyrazolo[1,5-a]pyridin-7-yl)nicotinamide] | ≤ 100 | > 1.5
O=C(c1cnn2c(-c3ccc(N4CCOCC4)nc3)cccc12)N1CCCCC1 [Example 108, (7-(6-morpholinopyridin-3-yl)pyrazolo[1,5-a]pyridin-3-yl)(piperidin-1-yl)methanone] | ≤ 100 | > 1.5
N#Cc1ccc(-c2cccc3c(C(=O)N4CCCCC4)cnn23)cn1 [Example 18, 5-(3-(piperidine-1-carbonyl)pyrazolo[1,5-a]pyridin-7-yl)picolinonitrile] | ≤ 100 | > 1.5
Cn1nc(N)c2cc(-c3cccc4c(C(=O)N5CCCCC5)cnn34)ccc21 [Example 261, [7-(3-amino-1-methyl-indazol-5-yl)pyrazolo[1,5-a]pyridin-3-yl]-(1-piperidyl)methanone] | ≤ 100 | > 1.5
O=C(c1cncc(-c2cccc3c(C(=O)N4CCCCC4)cnn23)c1)N1CC(F)C1 [Example 192, (3-fluoroazetidin-1-yl)(5-(3-(piperidine-1-carbonyl)pyrazolo[1,5-a]pyridin-7-yl)pyridin-3-yl)methanone] | ≤ 100 | > 1.5
O=C(c1cnn2c(-c3ccc(N4CCOC4=O)nc3)cccc12)N1CCCC(F)C1 (centres unmarked) [Example 383, 3-(5-(3-(3-fluoropiperidine-1-carbonyl)pyrazolo[1,5-a]pyridin-7-yl)pyridin-2-yl)oxazolidin-2-one] | ≤ 100 | > 1.5
Cn1oc2ccc(-c3cccc4c(C(=O)N5CCCCC5)cnn34)cc2c1=O [Example 268, 2-methyl-5-(3-(piperidine-1-carbonyl)pyrazolo[1,5-a]pyridin-7-yl)benzo[d]isoxazol-3(2H)-one] | ≤ 100 | > 1.5
O=C(c1ccc(-c2cccc3c(C(=O)N4CCCCC4)cnn23)cn1)N1CC2(CCC2)C1 [Example 214, 2-azaspiro[3.3]heptan-2-yl-[5-[3-(piperidine-1-carbonyl)pyrazolo[1,5-a]pyridin-7-yl]-2-pyridyl]methanone] | ≤ 100 | > 1.5
O=C(c1cnn2c(-c3cc(F)cc(-c4noc(=O)[nH]4)c3)cccc12)N1CCCCC1 [Example 299, 3-(3-fluoro-5-(3-(piperidine-1-carbonyl)pyrazolo[1,5-a]pyridin-7-yl)phenyl)-1,2,4-oxadiazol-5(4H)-one] | ≤ 100 | > 1.5
N#Cc1ncc(-c2cccc3c(C(=O)N4CCCCC4)cnn23)cc1F [Example 205, 3-fluoro-5-[3-(piperidine-1-carbonyl)pyrazolo[1,5-a]pyridin-7-yl]pyridine-2-carbonitrile] | ≤ 100 | > 1.5
O=C1NCCc2ccc(-c3cccc4c(C(=O)N5CCCCC5)cnn34)cc21 [Example 131, 7-(3-(piperidine-1-carbonyl)pyrazolo[1,5-a]pyridin-7-yl)-3,4-dihydroisoquinolin-1(2H)-one] | ≤ 100 | > 1.5
O=C1NCc2ccc(-c3cccc4c(C(=O)N5CCCC(F)(F)C5)cnn34)cc21 [Example 382, 6-(3-(3,3-difluoropiperidine-1-carbonyl)pyrazolo[1,5-a]pyridin-7-yl)isoindolin-1-one] | ≤ 100 | > 1.5
O=C(c1cnn2c(-c3ccc(N4CC(CO)C4)nc3)cccc12)N1CCCCC1 [Example 221, (7-(6-(3-(hydroxymethyl)azetidin-1-yl)pyridin-3-yl)pyrazolo[1,5-a]pyridin-3-yl)(piperidin-1-yl)methanone] | ≤ 100 | > 1.5

Continued, in another order:

IC50 (human 15-PGDH) [nM] | SMILES | fold induction at 1 µM (A549 cells)
≤ 100 | CN(C)C1CN(c2ccc(-c3cccc4c(C(=O)N5CCCCC5)cnn34)cn2)C1 [Example 218, (7-(6-(3-(dimethylamino)azetidin-1-yl)pyridin-3-yl)pyrazolo[1,5-a]pyridin-3-yl)(piperidin-1-yl)methanone] | > 1.5
≤ 100 | COc1noc2ccc(-c3cccc4c(C(=O)N5CCCCC5)cnn34)cc12 [Example 269, (7-(3-methoxybenzo[d]isoxazol-5-yl)pyrazolo[1,5-a]pyridin-3-yl)(piperidin-1-yl)methanone] | > 1.5
≤ 100 | O=C(c1cnn2c(NCc3ncccn3)cccc12)N1CCCCC1 [Example 148, piperidin-1-yl(7-((pyrimidin-2-ylmethyl)amino)pyrazolo[1,5-a]pyridin-3-yl)methanone] | > 1.5
≤ 100 | NC(=O)c1ncc(-c2ccc(-c3cccc4c(C(=O)N5CCCCC5)cnn34)cc2)cn1 [Example 307, 5-[4-[3-(piperidine-1-carbonyl)pyrazolo[1,5-a]pyridin-7-yl]phenyl]pyrimidine-2-carboxamide] | > 1.5
≤ 100 | O=C(NCC1CC1)c1ccc(-c2cccc3c(C(=O)N4CCCCC4)cnn23)cn1 [Example 80, N-(cyclopropylmethyl)-5-(3-(piperidine-1-carbonyl)pyrazolo[1,5-a]pyridin-7-yl)picolinamide] | > 1.5
≤ 100 | O=C(c1cnn2c(-c3ccc(-c4cn[nH]c4)cc3)cccc12)N1CCCCC1 [Example 346, 1-piperidyl-[7-[4-(1H-pyrazol-4-yl)phenyl]pyrazolo[1,5-a]pyridin-3-yl]methanone] | > 1.5
≤ 100 | CS(=O)(=O)NC(=O)c1cncc(-c2cccc3c(C(=O)N4CCCCC4)cnn23)c1 [Example 201, N-methylsulfonyl-5-[3-(piperidine-1-carbonyl)pyrazolo[1,5-a]pyridin-7-yl]pyridine-3-carboxamide] | > 1.5
≤ 100 | CN1CCC(NC(=O)c2ccc(-c3cccc4c(C(=O)N5CCCCC5)cnn34)cc2)CC1 [Example 65, N-(1-methylpiperidin-4-yl)-4-(3-(piperidine-1-carbonyl)pyrazolo[1,5-a]pyridin-7-yl)benzamide] | < 1.5
≤ 100 | CC(C)N1Cc2ccc(-c3cccc4c(C(=O)N5CCCCC5)cnn34)cc2C1=O [Example 142, 2-isopropyl-6-(3-(piperidine-1-carbonyl)pyrazolo[1,5-a]pyridin-7-yl)isoindolin-1-one] | > 1.5
≤ 100 | O=C1NCCc2ncc(-c3cccc4c(C(=O)N5CCCCC5)cnn34)cc21 [Example 195, 3-(3-(piperidine-1-carbonyl)pyrazolo[1,5-a]pyridin-7-yl)-7,8-dihydro-1,6-naphthyridin-5(6H)-one] | > 1.5
≤ 100 | CC1CCCN(C(=O)c2cnn3c(-c4ccc(F)nc4)cccc23)C1 (centres unmarked) [Example 336, (7-(6-fluoropyridin-3-yl)pyrazolo[1,5-a]pyridin-3-yl)(3-methylpiperidin-1-yl)methanone] | > 1.5
≤ 100 | O=C(c1cnn2c(-c3ccc([N+](=O)[O-])nc3)cccc12)N1CCCCC1 [Example 16, (7-(6-nitropyridin-3-yl)pyrazolo[1,5-a]pyridin-3-yl)(piperidin-1-yl)methanone] | > 1.5
≤ 100 | Cc1noc(C)c1-c1ncc(-c2cccc3c(C(=O)N4CCCCC4)cnn23)cc1F [Example 381, [7-[6-(3,5-dimethylisoxazol-4-yl)-5-fluoro-3-pyridyl]pyrazolo[1,5-a]pyridin-3-yl]-(1-piperidyl)methanone] | > 1.5
≤ 100 | CNC(=O)c1ncc(-c2cccc3c(C(=O)N4CCCCC4)cnn23)cc1Cl [Example 262, 3-chloro-N-methyl-5-[3-(piperidine-1-carbonyl)pyrazolo[1,5-a]pyridin-7-yl]pyridine-2-carboxamide] | > 1.5
≤ 100 | CN(C)CCNC(=O)c1ccc(-c2cccc3c(C(=O)N4CCCCC4)cnn23)cn1 [Example 79, N-(2-(dimethylamino)ethyl)-5-(3-(piperidine-1-carbonyl)pyrazolo[1,5-a]pyridin-7-yl)picolinamide] | > 1.5
